Patent US8658690B2, “Use of novel compounds from fruiting body of Antrodia camphorata for treating an inflammatory disorder” (Well Shine Biotechnology Development Co., Ltd., priority 2008, dated 2014)
Values after ≈ are worked out from the molar mass of the structure shown.

Columns and labels:
Type in all cases: cell-based, murine
TNF-α [1] = experiment: Spontaneous TNF-α secretion by RAW264.7 cells, sandwich ELISA of supernatants; conditions: 48 hours; for TNF-α (pg/mL) secretion: spontaneous, control 88 ± 45
Procedure: (§1) The cytokine levels in culture supernatants were measured by sandwich ELISA methods as described by Chen and Lin (Chen, M. L. et al., Int. Arch. Allergy Immunol. 2007, 143, 21-30). More specifically, the anti-cytokine antibodies (PharMingen, San Diego, Calif.) were coated in the 96-well plates (Nunc, Roskilde, Denmark) after overnight incubation at 4° C. and having been blocked with 1% BSA PBS buffer for 30 min. The samples and standards (recombinant mouse cytokines, PharMingen) were added to the 96-well plates for 2 hours incubation. The biotin-conjugated antibodies (biotinylated rat anti-mouse cytokine monoclonal antibodies, PharMingen) were added and incubated. After washing, streptavidin-conjugated peroxidase was added for 1 hour. The substrates, 2,2′-azino-bis-3-ethyl-benzthiazoline-6-sulfonic acid (ABTS, Sigma), were added to each well for 20 min. The plates were read in a microplate autoreader (Microplate autoreader; Bio-Tek Instruments, Winooski, Vt.) at 405 nm.
(§2) To evaluate the immunomodulatory effects of these new compounds, the in vitro production of cytokines in RA W264.7 cells were treated without or with the compounds of the invention at different concentrations for 48 hours. The supernatants were collected for TNF-α assay, and cells were collected for viability analysis by MTT method.

TNF-α [2] = experiment: TNF-α secretion in LPS-stimulated RAW264.7 cells, ELISA; conditions: 50 ng/mL LPS 48 hours, LPS control 3.81 ± 0.93
Procedure: as §1
(§3) IL-6, a proinflammatory cytokine which is a useful marker of infection, is secreted by macrophages in many infectious and inflammatory states, including cardiac surgery, cardiogenic shock, coronary bypass and bacteria sepsis (Kantar, M. et al., Eur. J. Pediatr. 2000, 159, 156-157). Serum concentration of IL-6 has been reported to correlate with disease severity (Pathan, N. et al., Lancet 2004, 363, 203-209). The productions of IL-6 from LPS-stimulated macrophages were measured to evaluate the anti-inflammation effect of the compounds. The cells were pretreated with compounds isolated from A. camphorata for 30 min and then stimulated with 50 ng/mL LPS for 48 hours. The supernatants were collected for TNF-α and IL-6 assay, and the cells were collected for viability analysis by MTT method.

IL-6 = IL-6 secretion in LPS-stimulated RAW264.7 cells, ELISA; conditions: for IL-6 (pg/mL) secretion: LPS control 238 ± 86
Procedure: as §1, §3

[3] = test system: LPS-stimulated RAW264.7 macrophage cells; experiment: Cell viability by MTT method in LPS-stimulated RAW264.7 cells; conditions: 30 min pretreatment then 50 ng/mL LPS 48 hours
Procedure: as §3

[4] = test system: RAW264.7 macrophage cells; experiment: Cell viability by MTT method in RAW264.7 cells treated with compounds for 48 hours (no LPS); conditions: RAW264.7, no LPS; for Cell viability (%): mean ± SD
Procedure: as §2

## CC(C)=CCOc1ccc([C@@H]2C(=O)NC(=O)[C@H]2CC(C)C)cc1 (relative stereo) [Compound 1, trans-3-Isobutyl-4-[4-(3-methyl-2-butenyloxy)phenyl]pyrrolidine-2,5-dione]
TNF-α [1]; 0.5˜5 μg/mL
  spontaneous TNF-α secretion by RAW264.7 cells (in words): significantly increased
TNF-α [1]; 0.5 μg/mL
  TNF-α (pg/mL) secretion: 117 ± 31 pg/mL
TNF-α [1]; 1 μg/mL
  TNF-α (pg/mL) secretion: 145 ± 44 pg/mL
TNF-α [1]; 2 μg/mL
  TNF-α (pg/mL) secretion: 183 ± 89 pg/mL
TNF-α [1]; 5 μg/mL
  TNF-α (pg/mL) secretion: 212 ± 60 pg/mL
TNF-α [1]; 10 μg/mL
  TNF-α (pg/mL) secretion: 188 ± 41 pg/mL
TNF-α [2]; 0.5 μg/mL
  TNF-α (ng/mL) secretion: 3.69 ± 0.39 ng/mL
TNF-α [2]; 1 μg/mL
  TNF-α (ng/mL) secretion: 3.92 ± 0.39 ng/mL
TNF-α [2]; 5 μg/mL
  TNF-α (ng/mL) secretion: 3.68 ± 0.25 ng/mL
TNF-α [2]; 10 μg/mL
  TNF-α (ng/mL) secretion: 3.65 ± 0.17 ng/mL
IL-6; 50 ng/mL LPS 48 hours
  IL-6 production in LPS-stimulated cells (in words): significantly decreased
IL-6; 0.5 μg/mL, 50 ng/mL LPS 48 hours
  IL-6 (pg/mL) secretion: 213 ± 88 pg/mL
IL-6; 1 μg/mL, 50 ng/mL LPS 48 hours
  IL-6 (pg/mL) secretion: 211 ± 99 pg/mL
IL-6; 5 μg/mL, 50 ng/mL LPS 48 hours
  IL-6 (pg/mL) secretion: 144 ± 64 pg/mL
IL-6; 10 μg/mL, 50 ng/mL LPS 48 hours
  IL-6 (pg/mL) secretion: 103 ± 61 pg/mL
IL-6; Mus musculus, LPS-stimulated RAW264.7, 50 ng/mL LPS 48 hours, highest tested concentration 10 μg/mL, read-out: IC50 of IL-6 production
  IC50: 10 µg/mL (≈ 31.7 µM)
[3]; 0.5 μg/mL
  Cell viability (%): 105 ± 3%
[3]; 1 μg/mL
  Cell viability (%): 106 ± 4%
[3]; 5 μg/mL
  Cell viability (%): 105 ± 3%
[3]; 10 μg/mL
  Cell viability (%): 102 ± 4%
[4]; 0.5 μg/mL
  Cell viability (%): 103 ± 2%
[4]; 1 μg/mL
  Cell viability (%): 101 ± 3%
[4]; 2 μg/mL
  Cell viability (%): 108 ± 6%
[4]; 5 μg/mL
  Cell viability (%): 100 ± 10%
[4]; 10 μg/mL
  Cell viability (%): 99 ± 7%
[4]
  effect on cell viability (in words): without affecting cell viability
